Results reported in ChEMBL document CHEMBL1154987, “C-Aryl glycoside inhibitors of SGLT2: Exploration of sugar modifications including C-5 spirocyclization” (Bioorg Med Chem Lett, 2010).
Blank lines part the entries; values can stand above or below the compound they belong to.

Key:
[1] = Volume of distribution at steady state in Sprague-Dawley rat at 2 mg/kg, iv; format: ADME, organism-based; parameters: dose 2 mg/kg, route intravenous; conditions: in vivo, read-out: Vdss
[2] = Half life in Sprague-Dawley rat at 2 mg/kg, iv; format: ADME, organism-based; parameters: dose 2 mg/kg, route intravenous; conditions: in vivo
[3] = Clearance in Sprague-Dawley rat at 2 mg/kg, iv; format: ADME, organism-based; parameters: dose 2 mg/kg, route intravenous; conditions: in vivo
[4] = Oral bioavailability in Sprague-Dawley rat at 5 mg/kg; format: ADME, organism-based; conditions: in vivo
[5] = biological target: T1, Sodium/glucose cotransporter 2 (Homo sapiens, UniProt P31639); test: Inhibition of human SGLT2 expressed in CHO cells assessed as inhibition of sodium-dependent methyl-alpha-D-[U-14C]glucopyranoside uptake after 2 hrs; format: cell-based
T1 sequence (P31639 whole entry): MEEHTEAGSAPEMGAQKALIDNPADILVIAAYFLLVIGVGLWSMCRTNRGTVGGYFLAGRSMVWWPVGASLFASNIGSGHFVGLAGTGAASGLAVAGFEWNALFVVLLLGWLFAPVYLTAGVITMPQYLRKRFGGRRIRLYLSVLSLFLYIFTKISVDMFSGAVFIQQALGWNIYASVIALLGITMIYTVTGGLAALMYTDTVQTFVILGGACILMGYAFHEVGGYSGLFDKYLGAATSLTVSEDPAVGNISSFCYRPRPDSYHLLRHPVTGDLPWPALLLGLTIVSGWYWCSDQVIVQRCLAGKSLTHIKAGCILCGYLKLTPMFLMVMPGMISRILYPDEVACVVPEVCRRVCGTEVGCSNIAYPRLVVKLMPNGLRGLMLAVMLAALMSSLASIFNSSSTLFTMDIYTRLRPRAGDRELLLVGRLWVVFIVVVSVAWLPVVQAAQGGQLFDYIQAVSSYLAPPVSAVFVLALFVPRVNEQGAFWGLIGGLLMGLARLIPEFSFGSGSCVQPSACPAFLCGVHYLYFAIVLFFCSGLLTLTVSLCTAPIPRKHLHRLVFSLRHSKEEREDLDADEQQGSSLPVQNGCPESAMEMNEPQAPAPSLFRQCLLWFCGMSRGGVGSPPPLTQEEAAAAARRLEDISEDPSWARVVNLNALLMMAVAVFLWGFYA

[6] = biological target: T2, Sodium/glucose cotransporter 1 (Homo sapiens, UniProt P13866); test: Inhibition of human SGLT1 expressed in CHO cells assessed as inhibition of sodium-dependent methyl-alpha-D-[U-14C]glucopyranoside uptake after 2 hrs; format: cell-based
T2 sequence (P13866 whole entry): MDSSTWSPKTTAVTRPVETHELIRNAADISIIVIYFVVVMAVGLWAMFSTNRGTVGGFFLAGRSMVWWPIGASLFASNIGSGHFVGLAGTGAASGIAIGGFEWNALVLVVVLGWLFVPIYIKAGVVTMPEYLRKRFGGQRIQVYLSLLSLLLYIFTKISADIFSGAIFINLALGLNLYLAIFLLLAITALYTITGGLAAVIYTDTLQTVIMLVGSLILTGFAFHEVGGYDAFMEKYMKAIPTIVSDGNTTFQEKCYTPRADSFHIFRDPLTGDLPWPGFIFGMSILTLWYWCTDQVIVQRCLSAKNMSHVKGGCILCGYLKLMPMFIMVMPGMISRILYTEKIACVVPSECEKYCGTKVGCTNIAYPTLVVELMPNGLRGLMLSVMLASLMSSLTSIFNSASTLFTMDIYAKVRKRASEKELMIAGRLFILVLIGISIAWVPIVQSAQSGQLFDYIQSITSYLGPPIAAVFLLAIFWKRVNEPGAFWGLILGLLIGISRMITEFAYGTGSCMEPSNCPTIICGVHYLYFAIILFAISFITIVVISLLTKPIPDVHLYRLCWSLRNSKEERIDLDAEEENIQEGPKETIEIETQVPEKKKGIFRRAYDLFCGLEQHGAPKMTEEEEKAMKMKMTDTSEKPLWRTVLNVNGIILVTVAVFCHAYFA

[7] = Half life in Sprague-Dawley rat at 1 mg/kg, iv; format: ADME, organism-based; parameters: dose 1 mg/kg, route intravenous; conditions: in vivo
[8] = Volume of distribution at steady state in Sprague-Dawley rat at 1 mg/kg, iv; format: ADME, organism-based; parameters: dose 1 mg/kg, route intravenous; conditions: in vivo, read-out: Vdss
Homo sapiens = species on record: Homo sapiens; test: Selectivity ratio of IC50 for human SGLT2 over IC50 for human SGLT1
[9] = Clearance in Sprague-Dawley rat at 1 mg/kg, iv; format: ADME, organism-based; parameters: dose 1 mg/kg, route intravenous; conditions: in vivo
Rattus norvegicus = test: Antidiabetic activity in Sprague-Dawley rat assessed as maximum urinary glucose excretion at 60 mg/kg, po over 24 hrs measured per 200 g body weight; format: functional, Urine

Structure (SMILES): CCOc1ccc(Cc2cc([C@@H]3O[C@H](CO)[C@@H](O)[C@H](O)[C@H]3O)ccc2Cl)cc1 [DAPAGLIFLOZIN]
Vd [1]: 3.8 L/kg
half-life [2]: 264 min
clearance [3]: 10 mL/min/kg
bioavailability [4]: 100%

Structure (SMILES): CCc1ccc(Cc2cc([C@H]3C[C@@H](O)[C@H](O)[C@@H](CO)O3)ccc2C)cc1
IC50 [5]: > 10000 nM

Structure (SMILES): COc1ccc(Cc2cc([C@@H]3OC4(CC4)[C@@H](O)[C@H](O)[C@H]3O)ccc2C)cc1
half-life [7]: 36.6 min
Vd [8]: 2.6 L/kg
Ratio IC50 (Homo sapiens): 47
IC50 [5]: 7.9 nM
clearance [9]: 48.9 mL/min/kg
IC50 [6]: 370 nM

Structure (SMILES): CCc1ccc(Cc2cc([C@@H]3OC4(CS(=O)(=O)C4)[C@@H](O)[C@H](O)[C@H]3O)ccc2C)cc1
IC50 [5]: 14 nM
IC50 [6]: > 10000 nM

Structure (SMILES): COc1ccc(Cc2cc([C@@H]3O[C@H](CO)[C@@H](O)[C@H](O)[C@H]3OC)ccc2Cl)cc1
IC50 [5]: 140 nM

Structure (SMILES): CCc1ccc(Cc2cc([C@@H]3O[C@H](CO)[C@@H](O)C[C@H]3O)ccc2C)cc1
IC50 [5]: 2000 nM

Structure (SMILES): CCc1ccc(Cc2cc([C@@H]3O[C@H](CO)[C@H](O)[C@H](O)[C@H]3O)ccc2C)cc1
IC50 [5]: 139 nM

Structure (SMILES): CCc1ccc(Cc2cc([C@@H]3O[C@H](CO)[C@@H](O)[C@@H](O)[C@H]3O)ccc2C)cc1
IC50 [5]: 3700 nM

Structure (SMILES): COc1ccc(Cc2cc([C@@H]3O[C@H](CO)C[C@H](O)[C@H]3O)ccc2Cl)cc1
IC50 [5]: 21 nM

Structure (SMILES): CCc1ccc(Cc2cc([C@@H]3O[C@]4(CCCO4)[C@@H](O)[C@H](O)[C@H]3O)ccc2C)cc1
IC50 [5]: 53 nM
IC50 [6]: 1100 nM

Structure (SMILES): CCOc1ccc(Cc2cc([C@@H]3OC4(COC4)[C@@H](O)[C@H](O)[C@H]3O)ccc2Cl)cc1
IC50 [5]: 32 nM
IC50 [6]: 5600 nM

Structure (SMILES): COc1ccc(Cc2cc([C@@H]3OC(CO)(CO)[C@@H](O)[C@H](O)[C@H]3O)ccc2Cl)cc1
IC50 [5]: 59 nM
IC50 [6]: 6800 nM

Structure (SMILES): CCc1ccc(Cc2cc([C@@H]3OC4(CNC4)[C@@H](O)[C@H](O)[C@H]3O)ccc2C)cc1
IC50 [5]: 5100 nM
IC50 [6]: > 10000 nM

Structure (SMILES): COc1ccc(Cc2cc([C@@H]3O[C@H](CO)[C@@H](OC)[C@H](O)[C@H]3O)ccc2Cl)cc1
IC50 [5]: 180 nM

Structure (SMILES): COc1ccc(Cc2cc([C@@H]3OC4(COC4)[C@@H](O)[C@H](O)[C@H]3O)ccc2Cl)cc1
IC50 [5]: 23 nM
IC50 [6]: > 9600 nM

Continued, in another order:

IC50 [5]: 2.4 nM
IC50 [6]: 73 nM
Structure (SMILES): COc1ccc(Cc2cc([C@@H]3O[C@H](C)[C@@H](O)[C@H](O)[C@H]3O)ccc2Cl)cc1

half-life [7]: 35.4 min
Vd [8]: 5.7 L/kg
Ratio IC50 (Homo sapiens): 63
IC50 [5]: 3 nM
clearance [9]: 112 mL/min/kg
IC50 [6]: 190 nM
Structure (SMILES): CCc1ccc(Cc2cc([C@@H]3OC4(CC4)[C@@H](O)[C@H](O)[C@H]3O)ccc2C)cc1

IC50 [5]: 3.4 nM
IC50 [6]: 1500 nM
Structure (SMILES): CCc1ccc(Cc2cc([C@@H]3OC4(COC4)[C@@H](O)[C@H](O)[C@H]3O)ccc2C)cc1

IC50 [5]: 1 nM
IC50 [6]: 240 nM
Structure (SMILES): COc1ccc(Cc2cc([C@@H]3O[C@H](CO)[C@@H](O)[C@H](O)[C@H]3O)ccc2Cl)cc1

IC50 [5]: 5.1 nM
Structure (SMILES): COc1ccc(Cc2cc([C@@H]3O[C@H](CF)[C@@H](O)[C@H](O)[C@H]3O)ccc2Cl)cc1

IC50 [5]: 1.5 nM
Structure (SMILES): CCc1ccc(Cc2cc([C@@H]3O[C@H](CO)[C@@H](O)[C@H](O)[C@H]3O)ccc2C)cc1

Vd [1]: 2.3 L/kg
IC50 [5]: 6.6 nM
half-life [2]: 72 min
IC50 [6]: 1540 nM
clearance [3]: 22.3 mL/min/kg
bioavailability [4]: 100%
Structure (SMILES): COc1ccc(Cc2cc([C@@H]3OC4(COC4)[C@@H](O)[C@H](O)[C@H]3O)ccc2C)cc1
Activity (Rattus norvegicus): 2000 mg
